According to the supplement of paper PMC13380429:

Experiments:
Settings in all cases: 72 h
[1] = test system: HepG2; assay: drug sensitivity score (DSS) for viability; higher = more toxic; extreme values may be limits of the assay
[2] = test system: Vero E6; assay: as above
[3] = test system: Caco-2; assay: as above
[4] = test system: Calu-3; assay: as above
[5] = test system: U2OS; assay: as above
[6] = test system: HepG2; assay: cell viability relative to DMSO; higher = less toxic
[7] = test system: Vero E6; assay: as above
[8] = test system: Caco-2; assay: as above
[9] = test system: Calu-3; assay: as above
[10] = test system: U2OS; assay: as above
[11] = test system: HepG2; assay: relative viability EC50 (midpoint between 100% and the lowest measured viability); higher = less toxic
[12] = test system: Vero E6; assay: as above
[13] = test system: Caco-2; assay: as above
[14] = test system: Calu-3; assay: as above
[15] = test system: U2OS; assay: as above

O=[N+]([O-])c1ccc2nc(COCc3nc4ccc([N+](=O)[O-])cc4[nH]3)[nH]c2c1 [VU591]
drug sensitivity score [1]: 0
drug sensitivity score [2]: 0
drug sensitivity score [3]: 0
drug sensitivity score [4]: 0
drug sensitivity score [5]: 0
cell viability ([6]; 1 nM): 94.1%
cell viability ([6]; 10 nM): 95.6%
cell viability ([6]; 100 nM): 96.3%
cell viability ([6]; 1000 nM): 96.2%
cell viability ([6]; 10000 nM): 102%
cell viability ([7]; 1 nM): 93.4%
cell viability ([7]; 10 nM): 99.1%
cell viability ([7]; 100 nM): 92.2%
cell viability ([7]; 1000 nM): 94.6%
cell viability ([7]; 10000 nM): 114%
cell viability ([8]; 1 nM): 95.8%
cell viability ([8]; 10 nM): 92.2%
cell viability ([8]; 100 nM): 103%
cell viability ([8]; 1000 nM): 84.9%
cell viability ([8]; 10000 nM): 92.8%
cell viability ([9]; 1 nM): 94.6%
cell viability ([9]; 10 nM): 95.3%
cell viability ([9]; 100 nM): 101%
cell viability ([9]; 1000 nM): 100%
cell viability ([9]; 10000 nM): 88.7%
cell viability ([10]; 1 nM): 93.2%
cell viability ([10]; 10 nM): 93.7%
cell viability ([10]; 100 nM): 99.4%
cell viability ([10]; 1000 nM): 99%
cell viability ([10]; 10000 nM): 97.3%
relative viability EC50 [11]: > 10 µM
relative viability EC50 [12]: > 10 µM
relative viability EC50 [13]: > 10 µM
relative viability EC50 [14]: > 10 µM
relative viability EC50 [15]: > 10 µM

CC(=O)c1ccc2c(c1)N(CCCN1CCN(CCO)CC1)c1ccccc1S2 [acetophenazine]
drug sensitivity score [1]: 0
drug sensitivity score [2]: 0.5
drug sensitivity score [3]: 0
drug sensitivity score [4]: 0
drug sensitivity score [5]: 0
cell viability ([6]; 1 nM): 107%
cell viability ([6]; 10 nM): 98.9%
cell viability ([6]; 100 nM): 91.1%
cell viability ([6]; 1000 nM): 90.9%
cell viability ([6]; 10000 nM): 90.4%
cell viability ([7]; 1 nM): 104%
cell viability ([7]; 10 nM): 98.2%
cell viability ([7]; 100 nM): 106%
cell viability ([7]; 1000 nM): 99%
cell viability ([7]; 10000 nM): 82.6%
cell viability ([8]; 1 nM): 88.8%
cell viability ([8]; 10 nM): 103%
cell viability ([8]; 100 nM): 95.4%
cell viability ([8]; 1000 nM): 97.2%
cell viability ([8]; 10000 nM): 97.7%
cell viability ([9]; 1 nM): 107%
cell viability ([9]; 10 nM): 110%
cell viability ([9]; 100 nM): 95.3%
cell viability ([9]; 1000 nM): 108%
cell viability ([9]; 10000 nM): 88.7%
cell viability ([10]; 1 nM): 93.6%
cell viability ([10]; 10 nM): 100%
cell viability ([10]; 100 nM): 96.1%
cell viability ([10]; 1000 nM): 98.2%
cell viability ([10]; 10000 nM): 91.3%
relative viability EC50 [11]: > 10 µM
relative viability EC50 [12]: > 10 µM
relative viability EC50 [13]: > 10 µM
relative viability EC50 [14]: > 10 µM
relative viability EC50 [15]: > 10 µM

O=C(c1ccc2nccnc2c1)N1CCCCC1 [ampalex]
drug sensitivity score [1]: 0
drug sensitivity score [2]: 0
drug sensitivity score [3]: 0
drug sensitivity score [4]: 0
drug sensitivity score [5]: 0
cell viability ([6]; 1 nM): 103%
cell viability ([6]; 10 nM): 99.6%
cell viability ([6]; 100 nM): 108%
cell viability ([6]; 1000 nM): 102%
cell viability ([6]; 10000 nM): 102%
cell viability ([7]; 1 nM): 96.3%
cell viability ([7]; 10 nM): 96.8%
cell viability ([7]; 100 nM): 98.8%
cell viability ([7]; 1000 nM): 93.1%
cell viability ([7]; 10000 nM): 94%
cell viability ([8]; 1 nM): 97.6%
cell viability ([8]; 10 nM): 100%
cell viability ([8]; 100 nM): 94.5%
cell viability ([8]; 1000 nM): 103%
cell viability ([8]; 10000 nM): 101%
cell viability ([9]; 1 nM): 97.4%
cell viability ([9]; 10 nM): 107%
cell viability ([9]; 100 nM): 95.5%
cell viability ([9]; 1000 nM): 96.6%
cell viability ([9]; 10000 nM): 100%
cell viability ([10]; 1 nM): 98.3%
cell viability ([10]; 10 nM): 102%
cell viability ([10]; 100 nM): 94.8%
cell viability ([10]; 1000 nM): 99.7%
cell viability ([10]; 10000 nM): 102%
relative viability EC50 [11]: > 10 µM
relative viability EC50 [12]: > 10 µM
relative viability EC50 [13]: > 10 µM
relative viability EC50 [14]: > 10 µM
relative viability EC50 [15]: > 10 µM

Nc1cc(Cl)c(N=C2NCCN2)c(Cl)c1 [apraclonidine]
drug sensitivity score [1]: 0
drug sensitivity score [2]: 0
drug sensitivity score [3]: 0
drug sensitivity score [4]: 0
drug sensitivity score [5]: 0
cell viability ([6]; 1 nM): 96.5%
cell viability ([6]; 10 nM): 96.7%
cell viability ([6]; 100 nM): 105%
cell viability ([6]; 1000 nM): 92.3%
cell viability ([6]; 10000 nM): 96.5%
cell viability ([7]; 1 nM): 108%
cell viability ([7]; 10 nM): 89.1%
cell viability ([7]; 100 nM): 101%
cell viability ([7]; 1000 nM): 95.2%
cell viability ([7]; 10000 nM): 98.6%
cell viability ([8]; 1 nM): 104%
cell viability ([8]; 10 nM): 92.7%
cell viability ([8]; 100 nM): 110%
cell viability ([8]; 1000 nM): 111%
cell viability ([8]; 10000 nM): 96.6%
cell viability ([9]; 1 nM): 93.6%
cell viability ([9]; 10 nM): 100%
cell viability ([9]; 100 nM): 106%
cell viability ([9]; 1000 nM): 106%
cell viability ([9]; 10000 nM): 98.2%
cell viability ([10]; 1 nM): 96.4%
cell viability ([10]; 10 nM): 101%
cell viability ([10]; 100 nM): 94.8%
cell viability ([10]; 1000 nM): 101%
cell viability ([10]; 10000 nM): 102%
relative viability EC50 [11]: > 10 µM
relative viability EC50 [12]: > 10 µM
relative viability EC50 [13]: > 10 µM
relative viability EC50 [14]: > 10 µM
relative viability EC50 [15]: > 10 µM

COc1cc(C[C@H]2C(=O)OC[C@@H]2Cc2ccc(OC)c(OC)c2)ccc1O [arctigenin]
drug sensitivity score [1]: 7.8
drug sensitivity score [2]: 0
drug sensitivity score [3]: 2.3
drug sensitivity score [4]: 0
drug sensitivity score [5]: 0.4
cell viability ([6]; 1 nM): 93.7%
cell viability ([6]; 10 nM): 94.8%
cell viability ([6]; 100 nM): 96.6%
cell viability ([6]; 1000 nM): 77.3%
cell viability ([6]; 10000 nM): 21%
cell viability ([7]; 1 nM): 96%
cell viability ([7]; 10 nM): 98.2%
cell viability ([7]; 100 nM): 89.8%
cell viability ([7]; 1000 nM): 100%
cell viability ([7]; 10000 nM): 95%
cell viability ([8]; 1 nM): 96.2%
cell viability ([8]; 10 nM): 98.9%
cell viability ([8]; 100 nM): 94.5%
cell viability ([8]; 1000 nM): 84.4%
cell viability ([8]; 10000 nM): 77.1%
cell viability ([9]; 1 nM): 112%
cell viability ([9]; 10 nM): 96.9%
cell viability ([9]; 100 nM): 103%
cell viability ([9]; 1000 nM): 97.9%
cell viability ([9]; 10000 nM): 89.3%
cell viability ([10]; 1 nM): 101%
cell viability ([10]; 10 nM): 101%
cell viability ([10]; 100 nM): 98.3%
cell viability ([10]; 1000 nM): 92%
cell viability ([10]; 10000 nM): 86%
relative viability EC50 [11]: 1.44 µM
relative viability EC50 [12]: > 10 µM
relative viability EC50 [13]: > 10 µM
relative viability EC50 [14]: > 10 µM
relative viability EC50 [15]: > 10 µM

CC[C@H](C)[C@H](N)C1=N[C@H](C(=O)N[C@@H](CC(C)C)C(=O)N[C@H](CCC(=O)O)C(=O)N[C@H](C(=O)N[C@H]2CCCCNC(=O)[C@H](CC(N)=O)NC(=O)[C@@H](CC(=O)O)NC(=O)[C@H](Cc3cnc[nH]3)NC(=O)[C@@H](Cc3ccccc3)NC(=O)[C@H]([C@@H](C)CC)NC(=O)[C@@H](CCCN)NC2=O)[C@@H](C)CC)CS1 [bacitracin]
drug sensitivity score [1]: 0
drug sensitivity score [2]: 0
drug sensitivity score [3]: 0
drug sensitivity score [4]: 0
drug sensitivity score [5]: 0
cell viability ([6]; 1 nM): 100%
cell viability ([6]; 10 nM): 99%
cell viability ([6]; 100 nM): 99.4%
cell viability ([6]; 1000 nM): 103%
cell viability ([6]; 10000 nM): 104%
cell viability ([7]; 1 nM): 102%
cell viability ([7]; 10 nM): 96.2%
cell viability ([7]; 100 nM): 103%
cell viability ([7]; 1000 nM): 114%
cell viability ([7]; 10000 nM): 110%
cell viability ([8]; 1 nM): 104%
cell viability ([8]; 10 nM): 104%
cell viability ([8]; 100 nM): 90.4%
cell viability ([8]; 1000 nM): 106%
cell viability ([8]; 10000 nM): 119%
cell viability ([9]; 1 nM): 103%
cell viability ([9]; 10 nM): 96.4%
cell viability ([9]; 100 nM): 97.7%
cell viability ([9]; 1000 nM): 99.5%
cell viability ([9]; 10000 nM): 97.8%
cell viability ([10]; 1 nM): 95.8%
cell viability ([10]; 10 nM): 96.3%
cell viability ([10]; 100 nM): 98.9%
cell viability ([10]; 1000 nM): 98.9%
cell viability ([10]; 10000 nM): 102%
relative viability EC50 [11]: > 10 µM
relative viability EC50 [12]: > 10 µM
relative viability EC50 [13]: > 10 µM
relative viability EC50 [14]: > 10 µM
relative viability EC50 [15]: > 10 µM

CC1(C)S[C@@H]2[C@H](NC(=O)Cc3ccccc3)C(=O)N2[C@H]1C(=O)O [benzylpenicillin]
drug sensitivity score [1]: 0
drug sensitivity score [2]: 0
drug sensitivity score [3]: 0
drug sensitivity score [4]: 0
drug sensitivity score [5]: 0
cell viability ([6]; 1 nM): 95.9%
cell viability ([6]; 10 nM): 94%
cell viability ([6]; 100 nM): 116%
cell viability ([6]; 1000 nM): 99%
cell viability ([6]; 10000 nM): 98.2%
cell viability ([7]; 1 nM): 99.5%
cell viability ([7]; 10 nM): 97%
cell viability ([7]; 100 nM): 99%
cell viability ([7]; 1000 nM): 98%
cell viability ([7]; 10000 nM): 107%
cell viability ([8]; 1 nM): 80.1%
cell viability ([8]; 10 nM): 101%
cell viability ([8]; 100 nM): 97.6%
cell viability ([8]; 1000 nM): 95.3%
cell viability ([8]; 10000 nM): 106%
cell viability ([9]; 1 nM): 88.5%
cell viability ([9]; 10 nM): 104%
cell viability ([9]; 100 nM): 98.8%
cell viability ([9]; 1000 nM): 93.4%
cell viability ([9]; 10000 nM): 94.2%
cell viability ([10]; 1 nM): 96.6%
cell viability ([10]; 10 nM): 101%
cell viability ([10]; 100 nM): 101%
cell viability ([10]; 1000 nM): 104%
cell viability ([10]; 10000 nM): 104%
relative viability EC50 [11]: > 10 µM
relative viability EC50 [12]: > 10 µM
relative viability EC50 [13]: > 10 µM
relative viability EC50 [14]: > 10 µM
relative viability EC50 [15]: > 10 µM
